Numbered stars: 1 amine (or outer) side, 2 acyl side, 3 side chain; on linkers, the order of the positions; unused ones are H or OH. Square brackets hold non-standard residues; d marks the D form. Side chains are listed from the residue outwards. Peptide text beside a SMILES is read from it. * marks the point of attachment. C20 diacid = O=C(O)CCCCCCCCCCCCCCCCCCC(=O)*; C18 diacid = O=C(O)CCCCCCCCCCCCCCCCC(=O)*; γGlu = O=C(O)[C@H](CCC(=O)[*:2])N[*:1]; αMeF = C[C@](N)(Cc1ccccc1)C(=O)O; αMeL = CC(C)C[C@](C)(N)C(=O)O; AEEA = NCCOCCOCC(=O)O; Aib = CC(C)(N)C(=O)O

For the data set, the system named is CD8+ T cell depleted peripheral blood mononuclear cells.
Procedure: The purpose of this study is to determine the relative potential for clinical immunogenicity of a compound.
CD8+ T cell depleted peripheral blood mononuclear cells are prepared and labeled with Carboxyfluorescein Diacetate Succinimidyl Ester (CFSE, Invitrogen) from a cohort of 10 healthy donors. […] Cultures are incubated for 7 days at 37° C. with 5% CO2. On day 7, samples are analyzed by flow cytometry using High Throughput Sampler (HTS). Data is analyzed using FlowJo® Software (FlowJo, LLC, TreeStar).
Regarding `CC[C@H](C)[C@H](NC(=O)[C@H](CC(C)C)NC(=O)[C@H](Cc1ccc(O)cc1)NC(=O)[C@H](CCC(=O)O)NC(=O)[C@@H](NC(=O)[C@H](Cc1ccccc1)NC(=O)[C@H](CCC(=O)O)NC(=O)C(C)(C)NC(=O)[C@H](CCC(N)=O)NC(=O)[C@H](C)NC(=O)[C@H](CCCCNC(=O)COCCOCCNC(=O)COCCOCCNC(=O)CC[C@H](NC(=O)CCCCCCCCCCCCCCCCCCC(=O)O)C(=O)O)NC(=O)[C@H](CCCCN)NC(=O)[C@H](CC(=O)O)NC(=O)[C@H](CC(C)C)NC(=O)[C@](C)(CC(C)C)NC(=O)[C@@H](NC(=O)[C@H](CO)NC(=O)[C@H](Cc1ccc(O)cc1)NC(=O)[C@H](CC(=O)O)NC(=O)[C@H](CO)NC(=O)[C@@H](NC(=O)[C@H](Cc1ccccc1)NC(=O)[C@@H](NC(=O)CNC(=O)[C@H](CCC(=O)O)NC(=O)C(C)(C)NC(=O)[C@@H](N)Cc1ccc(O)cc1)[C@@H](C)O)[C@@H](C)O)[C@@H](C)CC)[C@@H](C)CC)C(=O)N[C@@H](C)C(=O)NCC(=O)NCC(=O)N1CCC[C@H]1C(=O)N[C@@H](CO)C(=O)N[C@@H](CO)C(=O)NCC(=O)N[C@@H](C)C(=O)N1CCC[C@H]1C(=O)N1CCC[C@H]1C(=O)N1CCC[C@H]1C(=O)N[C@@H](CO)C(N)=O` [Example 289] (H-Y[Aib]EGTFTSDYSI[αMeL]LDKK([AEEA-AEEA-γGlu-C20 diacid])AQ[Aib]EFIEYLIAGGPSSGAPPPS-NH2), the “frequency of positive CD+ T cell response (CDI>2.5)” value (“frequency” below) is “low”.

As to `CC[C@H](C)[C@H](NC(=O)[C@H](CC(C)C)NC(=O)[C@H](Cc1ccc(O)cc1)NC(=O)[C@H](CCC(=O)O)NC(=O)[C@@H](NC(=O)[C@H](Cc1ccccc1)NC(=O)[C@H](C)NC(=O)C(C)(C)NC(=O)[C@H](CCC(N)=O)NC(=O)[C@H](C)NC(=O)[C@H](CCCCNC(=O)COCCOCCNC(=O)COCCOCCNC(=O)CC[C@H](NC(=O)CCCCCCCCCCCCCCCCC(=O)O)C(=O)O)NC(=O)[C@H](CCCCN)NC(=O)[C@H](CC(=O)O)NC(=O)[C@H](CC(C)C)NC(=O)[C@H](CC(C)C)NC(=O)[C@@H](NC(=O)[C@H](CO)NC(=O)[C@H](Cc1ccc(O)cc1)NC(=O)[C@H](CC(=O)O)NC(=O)[C@H](CO)NC(=O)[C@@H](NC(=O)[C@](C)(Cc1ccccc1)NC(=O)[C@@H](NC(=O)CNC(=O)[C@H](CCC(=O)O)NC(=O)C(C)(C)NC(=O)[C@@H](N)Cc1ccc(O)cc1)[C@@H](C)O)[C@@H](C)O)[C@@H](C)CC)[C@@H](C)CC)C(=O)N[C@@H](CCC(=O)O)C(=O)NCC(=O)NCC(=O)N1CCC[C@H]1C(=O)N[C@@H](CO)C(=O)N[C@@H](CO)C(=O)NCC(N)=O` [Example 301] (H-Y[Aib]EGT[αMeF]TSDYSILLDKK([AEEA-AEEA-γGlu-C18 diacid])AQ[Aib]AFIEYLIEGGPSSG-NH2), the “frequency” value is recorded as “low”.

Turning to `CC[C@H](C)[C@H](NC(=O)[C@H](CC(C)C)NC(=O)[C@H](Cc1ccc(O)cc1)NC(=O)[C@H](CCC(=O)O)NC(=O)[C@@H](NC(=O)[C@H](Cc1ccccc1)NC(=O)[C@H](C)NC(=O)C(C)(C)NC(=O)[C@H](CCC(N)=O)NC(=O)[C@H](C)NC(=O)[C@H](CCCCNC(=O)COCCOCCNC(=O)COCCOCCNC(=O)CC[C@H](NC(=O)CCCCCCCCCCCCCCCCC(=O)O)C(=O)O)NC(=O)[C@H](CCC(=O)O)NC(=O)[C@H](CC(=O)O)NC(=O)[C@H](CC(C)C)NC(=O)[C@](C)(CC(C)C)NC(=O)[C@@H](NC(=O)[C@H](CO)NC(=O)[C@H](Cc1ccc(O)cc1)NC(=O)[C@H](CC(=O)O)NC(=O)[C@H](CO)NC(=O)[C@@H](NC(=O)[C@H](Cc1ccccc1)NC(=O)[C@@H](NC(=O)CNC(=O)[C@H](CCC(=O)O)NC(=O)C(C)(C)NC(=O)[C@@H](N)Cc1ccc(O)cc1)[C@@H](C)O)[C@@H](C)O)[C@@H](C)CC)[C@@H](C)CC)C(=O)N[C@@H](CCC(=O)O)C(=O)NCC(=O)NCC(=O)N1CCC[C@H]1C(=O)N[C@@H](CO)C(=O)N[C@@H](CO)C(=O)NCC(N)=O` [Example 303] (H-Y[Aib]EGTFTSDYSI[αMeL]LDEK([AEEA-AEEA-γGlu-C18 diacid])AQ[Aib]AFIEYLIEGGPSSG-NH2), the “frequency” value is recorded as “low”.

With `CC[C@H](C)[C@H](NC(=O)[C@H](CC(C)C)NC(=O)[C@H](Cc1ccc(O)cc1)NC(=O)[C@H](CCC(=O)O)NC(=O)[C@@H](NC(=O)[C@H](Cc1ccccc1)NC(=O)[C@H](C)NC(=O)C(C)(C)NC(=O)[C@H](CCC(N)=O)NC(=O)[C@H](C)NC(=O)[C@H](CCCCNC(=O)COCCOCCNC(=O)COCCOCCNC(=O)CC[C@H](NC(=O)CCCCCCCCCCCCCCCCC(=O)O)C(=O)O)NC(=O)[C@H](CCCCN)NC(=O)[C@H](CC(=O)O)NC(=O)[C@H](CC(C)C)NC(=O)[C@H](CC(C)C)NC(=O)[C@@H](NC(=O)[C@H](CO)NC(=O)[C@H](Cc1ccc(O)cc1)NC(=O)[C@H](CC(=O)O)NC(=O)[C@H](CO)NC(=O)[C@@H](NC(=O)[C@H](Cc1ccccc1)NC(=O)[C@@H](NC(=O)CNC(=O)[C@H](CCC(=O)O)NC(=O)C(C)(C)NC(=O)[C@@H](N)Cc1ccc(O)cc1)[C@@H](C)O)[C@@H](C)O)[C@@H](C)CC)[C@@H](C)CC)C(=O)N[C@@H](C)C(=O)NCC(=O)NCC(=O)N1CCC[C@H]1C(=O)N[C@@H](CO)C(=O)N[C@@H](CO)C(=O)NCC(=O)N[C@@H](C)C(=O)N1CCC[C@H]1C(=O)N1CCC[C@H]1C(=O)N1CCC[C@H]1C(=O)N[C@@H](CO)C(N)=O` [Example 316] (H-Y[Aib]EGTFTSDYSILLDKK([AEEA-AEEA-γGlu-C18 diacid])AQ[Aib]AFIEYLIAGGPSSGAPPPS-NH2), the “frequency” value is on record as “low”.

(Values after US12252524B2, “GIP/GLP1 co-agonist compounds” (Eli Lilly and Company, priority 2018, dated 2025).)
